This is an account of results in publication PMC4668926 (Biochemistry, 2015).

A word on the Kd: it is the equilibrium constant for the complex coming apart. A word on the stoichiometry N: it is the number of molecules, sites or subunits per partner or assembly.

The target of assay [1] is T1, KPR (ketopantoate reductase) (Staphylococcus aureus, UniProt A0A0J9X283).
T1 sequence (A0A0J9X283 1-286): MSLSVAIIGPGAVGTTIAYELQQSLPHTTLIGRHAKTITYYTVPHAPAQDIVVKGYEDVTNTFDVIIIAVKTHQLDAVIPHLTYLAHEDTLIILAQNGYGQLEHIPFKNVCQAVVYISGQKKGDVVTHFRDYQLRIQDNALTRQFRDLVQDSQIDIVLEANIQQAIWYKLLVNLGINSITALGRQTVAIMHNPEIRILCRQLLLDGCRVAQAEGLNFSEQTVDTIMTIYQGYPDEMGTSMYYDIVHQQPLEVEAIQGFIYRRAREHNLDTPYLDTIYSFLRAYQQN
Description: FRET titration, Trp167 to bound NADPH. In kind it is binding.

The target of assay [2] is Staphylococcus aureus ketopantoate reductase (Staphylococcus aureus). In words: AUC.

Compound `NC(=O)C1=CN([C@@H]2O[C@H](COP(=O)(O)OP(=O)(O)OC[C@H]3O[C@@H](n4cnc5c(N)ncnc54)[C@H](OP(=O)(O)O)[C@@H]3O)[C@@H](O)[C@H]2O)C=CC1` [NADPH] gave a Kd in assay [1] of 58 ± 2 nM.

In assay [2], “Staphylococcus aureus ketopantoate reductase (enzyme)” came in with a stoichiometry N of 2.
